Measured values from patent publication US10053463B2 (Janssen Pharmaceutica NV, priority 2013, dated 2018).

Assays:
P2X7 [1] = biological target: T1, P2X7 (Homo sapiens (Human), UniProt Q99572); assay: P2X7 antagonism in human peripheral blood mononuclear cells (PBMCs), IL-1β release; format: cell-based; conditions: Table 3 (additional runs); for remaining activity at 10 µM: P2X7, 10 μM compound, read-out: PBMC 10 μM (% control)
Summary of the method: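 Ficoll-isolated human PBMCs primed with LPS (30 ng/ml) for 1 h, treated with compound for 30 min, then stimulated with 0.5 mM Bz-ATP for 1.5 h. Supernatant IL-1β measured by ELISA as % of LPS+Bz-ATP minus LPS-only release; IC50 from concentration–response of triplicate means.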

P2X7 [2] = biological target: T1, P2X7; assay: Radioligand binding, human P2X7-1321N1 cell membranes, tracer tritiated A-804598; conditions: Table 3 (additional runs)
Experimental: P2X7 Antagonism in Recombinant Human P2X7 Cells or Recombinant Rat P2X7 Cells: (a) Ca^2+ Flux and (b) Radioligand Binding
(b) Radioligand Binding: human or rat P2X7-1321N1 cells were collected and frozen @−80° C. On the day of the experiment, cell membrane preparations were made according to standard published methods. The total assay volume was 100 μl:10 μl compound (10×)+(b) 40 μl tracer (2.5×)+50 μl membrane (2×). The tracer used for the assay was tritiated A-804598. The compound can be prepared as described in the literature. (Donnelly-Roberts, D. Neuropharmacology 2008, 56 (1), 223-229.) Compounds, tracer and membranes were incubated for 1 hour @ 4° C. The assay was terminated by filtration (GF/B filters pre-soaked with 0.3% PEI) and washed with washing buffer (Tris-HCl 50 mM). The IC50 generated in the binding assay was corrected for tracer concentration and affinity of the tracer to derive at the affinity (K) of the test compounds. […] Data are analyzed and graphed on Graphpad Prism 5. For analysis, each concentration point is averaged from triplicate values and the averaged values are plotted on Graphpad Prism.

T1 sequence (Q99572 whole entry): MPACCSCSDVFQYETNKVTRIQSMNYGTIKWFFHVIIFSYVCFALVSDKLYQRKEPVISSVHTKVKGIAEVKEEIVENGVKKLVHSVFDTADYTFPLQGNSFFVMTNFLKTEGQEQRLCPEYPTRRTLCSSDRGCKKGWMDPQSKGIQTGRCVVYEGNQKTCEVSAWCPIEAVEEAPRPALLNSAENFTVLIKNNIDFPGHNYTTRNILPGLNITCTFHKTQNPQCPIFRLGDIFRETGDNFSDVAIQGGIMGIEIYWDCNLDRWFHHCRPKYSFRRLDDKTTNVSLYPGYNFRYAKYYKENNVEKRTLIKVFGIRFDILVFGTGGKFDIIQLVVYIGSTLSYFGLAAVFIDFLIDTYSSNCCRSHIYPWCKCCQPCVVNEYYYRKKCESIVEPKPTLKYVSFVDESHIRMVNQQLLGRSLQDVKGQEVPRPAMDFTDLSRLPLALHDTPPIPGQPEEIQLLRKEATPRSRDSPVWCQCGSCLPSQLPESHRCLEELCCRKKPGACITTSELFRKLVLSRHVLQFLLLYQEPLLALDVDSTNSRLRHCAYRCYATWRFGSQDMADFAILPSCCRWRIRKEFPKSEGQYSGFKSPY

remaining activity at 10 µM (P2X7 [1]) | Ki (P2X7 [2]) | PBMC 1 μM (% control) (P2X7 [1]; 1 μM compound) | SMILES
-1.4% | 0.0631 µM |  | Cc1cnc(-c2nnc3n2C[C@H](C)n2c(-c4cccc(C(F)(F)F)c4Cl)nnc2-3)cn1 [Example 110, (5S)-3-[2-Chloro-3-(trifluoromethyl)phenyl]-5-methyl-8-(5-methylpyrazin-2-yl)-5,6-dihydrobis[1,2,4]triazolo[4,3-a:3′,4′-c]pyrazine]
6.7% | 0.126 µM |  | C[C@H]1Cn2c(-c3cn[nH]c3)nnc2-c2nnc(-c3cccc(C(F)(F)F)c3Cl)n21 [Example 112, (5S)-3-[2-Chloro-3-(trifluoromethyl)phenyl]-5-methyl-8-(1H-pyrazol-4-yl)-5,6-dihydrobis[1,2,4]triazolo[4,3-a:3′,4′-c]pyrazine]
2.1% | 0.0437 µM |  | C[C@H]1Cn2c(-c3cnco3)nnc2-c2nnc(-c3cccc(C(F)(F)F)c3Cl)n21 [Example 115, (5S)-3-[2-Chloro-3-(trifluoromethyl)phenyl]-5-methyl-8-(1,3-oxazol-5-yl)-5,6-dihydrobis[1,2,4]triazolo[4,3-a:3′,4′-c]pyrazine]
15% | 0.0141 µM |  | C[C@H]1Cn2c(-c3cc(C(F)(F)F)ccn3)nnc2-c2nnc(-c3cccc(C(F)(F)F)c3Cl)n21 [Example 119, (S)-3-[2-chloro-3-(trifluoromethyl)phenyl]-5-methyl-8-(4-(trifluoromethyl)pyridin-2-yl)-5,6-dihydrobis[1,2,4]triazolo[4,3-a:3′,4′-c]pyrazine]
7% | 0.0251 µM |  | C[C@H]1Cn2c(-c3ccc(Cl)cn3)nnc2-c2nnc(-c3cccc(C(F)(F)F)c3Cl)n21 [Example 120, (S)-3-[2-chloro-3-(trifluoromethyl)phenyl]-5-methyl-8-(5-chloropyridin-2-yl)-5,6-dihydrobis[1,2,4]triazolo[4,3-a:3′,4′-c]pyrazine]
9.3% | 0.0158 µM |  | Cc1ccc(-c2nnc3n2C[C@H](C)n2c(-c4cccc(C(F)(F)F)c4Cl)nnc2-3)s1 [Example 121, (S)-3-[2-chloro-3-(trifluoromethyl)phenyl]-5-methyl-8-(5-methylthiophen-2-yl)-5,6-dihydrobis[1,2,4]triazolo[4,3-a:3′,4′-c]pyrazine]
28.5% | 0.0105 µM |  | Cc1ccnc(-c2nnc3n2C[C@H](C)n2c(-c4cccc(C(F)(F)F)c4Cl)nnc2-3)c1 [Example 125, (S)-3-(2-chloro-3-(trifluoromethyl)phenyl)-5-methyl-8-(4-methylpyridin-2-yl)-5,6-dihydrobis([1,2,4]triazolo)[4,3-a:3′,4′-c]pyrazine]
0.1% | 0.01 µM |  | C[C@H]1Cn2c(-c3ccc(F)cn3)nnc2-c2nnc(-c3ccc(Cl)cc3Cl)n21 [Example 127, (S)-3-(2,4-dichlorophenyl)-8-(5-fluoropyridin-2-yl)-5-methyl-5,6-dihydrobis([1,2,4]triazolo)[4,3-a:3′,4′-c]pyrazine]
-0.7% | 0.0063 µM |  | COc1ccnc(-c2nnc3n2C[C@H](C)n2c(-c4ccc(Cl)cc4Cl)nnc2-3)c1 [Example 130, (S)-3-(2,4-dichlorophenyl)-8-(4-methoxypyridin-2-yl)-5-methyl-5,6-dihydrobis([1,2,4]triazolo)[4,3-a:3′,4′-c]pyrazine]

More lines, now with the values behind:

SMILES | remaining activity at 10 µM (P2X7 [1]) | Ki (P2X7 [2]) | PBMC 1 μM (% control) (P2X7 [1]; 1 μM compound)
C[C@H]1Cn2c(-c3nccs3)nnc2-c2nnc(-c3cccc(C(F)(F)F)c3Cl)n21 [Example 106, (5S)-3-[2-Chloro-3-(trifluoromethyl)phenyl]-5-methyl-8-(1,3-thiazol-2-yl)-5,6-dihydrobis[1,2,4]triazolo[4,3-a:3′,4′-c]pyrazine] | 1.9% | 0.0126 µM | 
Cc1ncsc1-c1nnc2n1C[C@H](C)n1c(-c3cccc(C(F)(F)F)c3Cl)nnc1-2 [Example 109, (5S)-3-[2-Chloro-3-(trifluoromethyl)phenyl]-5-methyl-8-(4-methyl-1,3-thiazol-5-yl)-5,6-dihydrobis[1,2,4]triazolo[4,3-a:3′,4′-c]pyrazine] | -1.2% | 0.0631 µM | 
C[C@H]1Cn2c(-c3ccncn3)nnc2-c2nnc(-c3cccc(C(F)(F)F)c3Cl)n21 [Example 111, (5S)-3-[2-Chloro-3-(trifluoromethyl)phenyl]-5-methyl-8-pyrimidin-4-yl-5,6-dihydrobis[1,2,4]triazolo[4,3-a:3′,4′-c]pyrazine] | 6.1% | 0.01 µM | 
COc1ccnc(-c2nnc3n2C[C@H](C)n2c(-c4cccc(C(F)(F)F)c4Cl)nnc2-3)c1 [Example 113, (5S)-3-[2-Chloro-3-(trifluoromethyl)phenyl]-8-(4-methoxypyridin-2-yl)-5-methyl-5,6-dihydrobis[1,2,4]triazolo[4,3-a:3′,4′-c]pyrazine] | 5.8% | 0.0087 µM | 
C[C@H]1Cn2c(-c3nccc(C(F)(F)F)n3)nnc2-c2nnc(-c3cccc(C(F)(F)F)c3Cl)n21 [Example 118, (S)-3-[2-chloro-3-(trifluoromethyl)phenyl]-5-methyl-8-(4-(trifluoromethyl)pyrimidin-2-yl)-5,6-dihydrobis[1,2,4]triazolo[4,3-a:3′,4′-c]pyrazine] | 9.9% | 0.0631 µM | 
C[C@H]1Cn2c(-c3ccccn3)nnc2-c2nnc(-c3cccc(C(F)(F)F)c3Cl)n21 [Example 124, (S)-3-(2-chloro-3-(trifluoromethyl)phenyl)-5-methyl-8-(pyridin-2-yl)-5,6-dihydrobis([1,2,4]triazolo)[4,3-a:3′,4′-c]pyrazine] | -4.2% | 0.0036 µM | 
C[C@H]1Cn2c(-c3ccc(F)cn3)nnc2-c2nnc(-c3cccc(Cl)c3Cl)n21 [Example 126, (S)-3-(2,3-dichlorophenyl)-8-(5-fluoropyridin-2-yl)-5-methyl-5,6-dihydrobis([1,2,4]triazolo)[4,3-a:3′,4′-c]pyrazine] | -0.5% | 0.0126 µM | 
Cc1c(-c2nnc3n2[C@@H](C)Cn2c(-c4ccc(F)cn4)nnc2-3)cccc1C(F)(F)F [Example 128, (S)-8-(5-fluoropyridin-2-yl)-5-methyl-3-(2-methyl-3-(trifluoromethyl)phenyl)-5,6-dihydrobis([1,2,4]triazolo)[4,3-a:3′,4′-c]pyrazine] | 3.8% | 0.0063 µM | 
COc1ccnc(-c2nnc3n2C[C@H](C)n2c(-c4cccc(Cl)c4Cl)nnc2-3)c1 [Example 129, (S)-3-(2,3-dichlorophenyl)-8-(4-methoxypyridin-2-yl)-5-methyl-5,6-dihydrobis([1,2,4]triazolo)[4,3-a:3′,4′-c]pyrazine] | -0.2% | 0.01 µM | 
COc1ccnc(-c2nnc3n2C[C@H](C)n2c(-c4cccc(C(F)(F)F)c4C)nnc2-3)c1 [Example 131, (S)-8-(4-methoxypyridin-2-yl)-5-methyl-3-(2-methyl-3-(trifluoromethyl)phenyl)-5,6-dihydrobis([1,2,4]triazolo)[4,3-a:3′,4′-c]pyrazine] | 0.7% | 0.005 µM | 
FC(F)(F)c1cccc(-c2nnc3n2CCn2c(-c4cnccn4)nnc2-3)c1Cl [Example 132, 3-[2-Chloro-3-(trifluoromethyl)phenyl]-8-pyrazin-2-yl-5,6-dihydrobis[1,2,4]triazolo[4,3-a:3′,4′-c]pyrazine] |  | 0.0282 µM | 50.7 % control
